Reference: ChEMBL document CHEMBL1201862, “PubChem BioAssay data set” (2004)
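Tested at 5 concentrations; 48 h exposure; 96-well plates; endpoints linearly interpolated, else capped at highest concentration. GI50 is the concentration that inhibits growth by half.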 Activity calls are given as the source filed them. Cut-off read from the data, not from the text of the source: active = GI50 up to about 1.1 µM and inactive = higher.

Columns and labels:
Experiment in all cases: inhibition of tumour cell growth, NCI panel, 48 h
DLD-1 = system: DLD-1
DMS-114 = system: DMS-114
DMS-273 = system: DMS-273
HOP-18 = system: HOP-18
KM-20L2 = system: KM-20L2
LXFL 529 = system: LXFL 529
SNB-78 = system: SNB-78
XF498 = system: XF498
RXF 631 = system: RXF 631

Structure (SMILES)	GI50 (DLD-1)	GI50 (DMS-114)	GI50 (DMS-273)	GI50 (HOP-18)	GI50 (KM-20L2)	GI50 (LXFL 529)	GI50 (SNB-78)	GI50 (XF498)	GI50 (RXF 631)
N=C(N)NS(=O)(=O)c1ccc(NC(=O)c2cccc3c(O)c4ccccc4nc23)cc1	> 100 µM (inactive)	> 100 µM (inactive)	> 100 µM (inactive)	> 86.5 µM (inactive)	> 100 µM (inactive)	> 100 µM (inactive)	42.1 µM (inactive)	> 100 µM (inactive)	
CCOC(=O)Cn1c2ccccc2c(=O)c2cc(C)c(C)c(C#N)c21	> 100 µM (inactive)		> 100 µM (inactive)	> 100 µM (inactive)	> 100 µM (inactive)	> 100 µM (inactive)	> 100 µM (inactive)	30.2 µM (inactive)	> 100 µM (inactive)
O=c1/c(=C/c2ccccc2[N+](=O)[O-])sc2nc3ccccc3n12	27.7 µM (inactive)	16.3 µM (inactive)	20 µM (inactive)	44.6 µM (inactive)	> 100 µM (inactive)	33.4 µM (inactive)	23.1 µM (inactive)	16 µM (inactive)	17.5 µM (inactive)
CC(=O)OCC1OC(n2c(=O)n(-c3ccccc3)c(=O)c3cc(Br)cc(Br)c32)C(OC(C)=O)C(OC(C)=O)C1OC(C)=O (stereo not given)	> 100 µM (inactive)	> 100 µM (inactive)	> 100 µM (inactive)	> 100 µM (inactive)	8.95 µM (inactive)	> 100 µM (inactive)	> 100 µM (inactive)	> 100 µM (inactive)	> 100 µM (inactive)
Clc1cc(Cl)c2c(Cl)cc(Cl)c3c2c1N=S=N3	83.8 µM (inactive)	> 100 µM (inactive)	> 100 µM (inactive)	> 100 µM (inactive)	> 100 µM (inactive)	> 100 µM (inactive)	> 100 µM (inactive)	12.9 µM (inactive)	
Cc1cc(C)c2c(c1)N[S@@](=O)S2	26.9 µM (inactive)	18.7 µM (inactive)	17.2 µM (inactive)	23.6 µM (inactive)	51.3 µM (inactive)	13.2 µM (inactive)	26.1 µM (inactive)	22.6 µM (inactive)	
Cc1cc2c(cc1C)[n+]([O-])c(C(=O)C/C(=N/NC(=O)c1ccccc1O)C(=O)Nc1ccccc1C(C)C)c(C)[n+]2[O-]	53.7 µM (inactive)	98.6 µM (inactive)	99.5 µM (inactive)	89.5 µM (inactive)	> 100 µM (inactive)	63 µM (inactive)	> 100 µM (inactive)		> 100 µM (inactive)
COc1ccc(-c2oc3cc(O)c(OC)c(O)c3c(=O)c2OC2OC(CO)C(O)C(O)C2O)cc1 (stereo not given)	> 100 µM (inactive)	> 100 µM (inactive)	> 100 µM (inactive)	50.4 µM (inactive)	> 100 µM (inactive)	> 100 µM (inactive)	> 100 µM (inactive)		
CC1=C(C)CC2(CCCCC2=O)[S+]([O-])C1 (stereo not given)	> 100 µM (inactive)	> 100 µM (inactive)	> 100 µM (inactive)	> 100 µM (inactive)	> 100 µM (inactive)	> 100 µM (inactive)	> 100 µM (inactive)	> 100 µM (inactive)	
COc1cc(/C=C(\C#N)c2ccccc2)cc(OC)c1	76.9 µM (inactive)	27.5 µM (inactive)			41.1 µM (inactive)	43.4 µM (inactive)	82.4 µM (inactive)	48 µM (inactive)	
CS/C(c1ccccc1)=[N+](/C)[O-]	> 61.5 µM (inactive)			> 100 µM (inactive)	> 100 µM (inactive)	> 100 µM (inactive)	> 100 µM (inactive)	> 100 µM (inactive)	> 100 µM (inactive)
CCOC(=O)N1C2C=C(C)C(C3C(C)C(=O)N31)N(C(=O)c1ccccc1)O2 (stereo not given)	> 100 µM (inactive)	> 100 µM (inactive)	> 100 µM (inactive)	> 100 µM (inactive)		> 100 µM (inactive)	> 100 µM (inactive)	> 100 µM (inactive)	> 100 µM (inactive)
C/C(CC(=O)Nc1ccc(NC(=O)/C(C)=N/NS(=O)(=O)c2ccc(C)cc2)cc1)=N\NS(=O)(=O)c1ccc(C)cc1	> 100 µM (inactive)	> 100 µM (inactive)			> 100 µM (inactive)	> 100 µM (inactive)	> 100 µM (inactive)		
C[C@H]1CC[P+](C)(c2ccccc2)C1 (stereo not given in full)	> 100 µM (inactive)	> 100 µM (inactive)	> 100 µM (inactive)	> 100 µM (inactive)	> 100 µM (inactive)	> 100 µM (inactive)	> 100 µM (inactive)	< 0.01 µM (active)	
Brc1cc2c(cc1Br)CN(c1ccccc1)C2	68.2 µM (inactive)	> 100 µM (inactive)	> 100 µM (inactive)		> 100 µM (inactive)	> 100 µM (inactive)	> 100 µM (inactive)	> 100 µM (inactive)	
NC(CNc1ccc(O)cc1)C(=O)O (stereo not given)	> 100 µM (inactive)	> 100 µM (inactive)	> 100 µM (inactive)	> 100 µM (inactive)	63 µM (inactive)	> 100 µM (inactive)	> 100 µM (inactive)	13.5 µM (inactive)	92.3 µM (inactive)
COC(=O)Cc1nc2ccccc2o1	45.1 µM (inactive)	36.1 µM (inactive)	36.4 µM (inactive)	> 100 µM (inactive)	20.5 µM (inactive)	49.3 µM (inactive)	> 100 µM (inactive)	59 µM (inactive)	> 100 µM (inactive)
O=S1OC(c2ccccc2)(c2ccccc2)C(c2ccccc2)(c2ccccc2)O1	> 73.8 µM (inactive)	36.8 µM (inactive)	> 100 µM (inactive)	> 100 µM (inactive)	18 µM (inactive)	7.45 µM (inactive)	> 100 µM (inactive)	56.2 µM (inactive)	> 100 µM (inactive)
CCc1nc2c([nH]1)C(=O)c1ccccc1C2=O	39.1 µM (inactive)	21.2 µM (inactive)	37.1 µM (inactive)				53.7 µM (inactive)	15.9 µM (inactive)	
Cc1ccc(Nc2cccc3c2C(=O)c2cccc(Nc4ccc(C)cc4S(=O)(=O)O)c2C3=O)c(S(=O)(=O)O)c1	> 100 µM (inactive)	> 100 µM (inactive)	> 100 µM (inactive)	> 100 µM (inactive)	> 100 µM (inactive)	> 100 µM (inactive)	> 100 µM (inactive)		> 100 µM (inactive)
c1ccc(C2OC3(CCC[C@H]4C[C@H]43)O[C@H]2c2ccccc2)cc1 (stereo not given in full)	78.9 µM (inactive)	33.7 µM (inactive)	49.4 µM (inactive)		30.8 µM (inactive)		58.9 µM (inactive)	22.7 µM (inactive)	89.3 µM (inactive)
CC1C=CC(O)[C@]2(CO)CC3(CCC12)OCCO3 (stereo not given in full)	> 100 µM (inactive)	> 100 µM (inactive)	> 100 µM (inactive)		> 100 µM (inactive)	> 100 µM (inactive)	> 100 µM (inactive)	> 100 µM (inactive)	> 100 µM (inactive)
O=C(CC(=O)c1ccccc1)c1ccccc1.O=C(CC(=O)c1ccccc1)c1ccccc1.O=C(CC(=O)c1ccccc1)c1ccccc1.[SiH4]	3.7 µM (inactive)	2.3 µM (inactive)		6.71 µM (inactive)	4.18 µM (inactive)	3.39 µM (inactive)		3.87 µM (inactive)	
